Experimental data reported in US20110092439A1, “METHOD OF PROMOTING WOUND HEALING” (priority 2008, published 2011).
Entries after “also recorded” stand apart in the source; their conditions may differ.

Columns and labels:
[1] = tested on: 20×6 mm incisional wounds on the back; experiment: Porcine skin wound study; type: in vivo, juvenile pigs
Excerpt: Overview of the Animal Study. In selecting the appropriate animal for this study, a pig was selected because of the anatomical similarities between pig skin and human skin. In fact, pig wound healing has been used in numerous studies to simulate human skin (Sullivan et al., Wound Repair Regen. 9: 66-76, 2001).
Design of Study. In this study, juvenile pigs were oriented with twelve wound sites per animal—20×6 mm incisional wounds on the back—over the course of a six week study (see FIG. 2). Systemic relaxin was delivered via mini-pumps to achieve 20 ng/mL serum concentrations. Topical formulations were prepared by Dow Pharma, and consisted of propylene glycol and ethanol, which contributed to good long term stability of the therapeutic agent. Dosages consisting of placebo, 0.5 mg/mL (low dose), and 2.5 mg/mL (high dose) were prepared. The goals of the study were to assess the safety of topical relaxin on wound healing and to determine the efficacy of relaxin as a treatment for wound healing and/or scar formation. During the first week, irrigation was performed once daily. During weeks 2-3, topical formulation was applied twice daily, and during weeks […], topical formulation was applied once daily.
Design of Drug. The study drug was relaxin (produced by recombinant technology). Recombinant relaxin is identical to the native human hormone H2 relaxin, produced using a recombinant single chain process. The active test article may be aseptically diluted to the desired concentration with the acetate diluent (20 mM sodium acetate, pH 5.0).
Study Procedures. Referring to FIG. 3 which depicts the back of a pig with incisions according to the experimental design described herein at the completion of six weeks, the wound in Section 3 was irrigated with relaxin construct during the first week, and subsequently treated with high dose topical relaxin formulation during weeks 2-6 as described above. Sections 4, 5, and 6 received no irrigation during week 1. Section 4 was treated with placebo. Section 5 was treated with low dose topical formulation, and Section 6 was treated with high dose topical formulation.
Cosmetic appearance of skin. Visual rankings of wound pictures were conducted by neutral observers who evaluated scabs during early wound healing (days 5-7) and scars at the end of the study (see FIG. 4). […] The results of this visual wound assessment determined that 89% of the time a relaxin treatment group was selected in the top three. Only 11% of the time, a group not treated with relaxin was selected in the top three.
A cosmetic score was also determined by a professional dermatologist at weeks 2, 4, and 6. The cosmetic score has five components: (1) color—matching with surrounding skin; (2) texture—no hardness; (3) distortion—no distortion of nearby skin; (4) contour—flush with surrounding skin; (5) global—no hypertrophy or keloid formation. During this dermatological assessment, evaluation at time 2 weeks was obscured by scabs, so the data for cosmetic scores was collected from evaluation at weeks 4 and 6 (see FIG. 5). […] In the bottom profile, the scar is visible.
Histological evaluation. A professional histopathologist evaluated the pathology of the treatments for such indications as granulation, inflammation, and necrosis. In judging granulation tissue, it is considered that early response to wound includes invasion of the site by fibroblasts, inflammatory cells, and new blood vessels. Over time, this resolves to more normal tissue as the site heals. Chronic inflammation characterized by the presence of macrophages, giant cells, lymphocytes, and PMNs indicated adverse reaction. Minor factors such as keratosis (formation of keratin layer outside the epidermis) and acanthosis (thickening of the epidermal layer) are also considered. […]

[2] = Canine gingiva study: RLX migration and degradation after gingival injection (SELDI-TOF MS); type: in vivo, dog; conditions: for migration of RLX through the gingiva: after gingival injection; for concentration of H2 RLX detected in treated gingiva: site of injection
Protocol: The aim of this study was to determine the rate of RLX migration and extent of degradation after gingival injections. […] Employing a dog model, RLX was administered and tissue punch biopsies were collected at the site of injection and 0.5, 1 and 2 cm from the site of injection. Tissue was collected at several time points including 1, 2 and 4 hrs after injection. Protein was extracted from the gingival biopsies and analysed via ProteinChip technology (Surface Enhanced Laser Desorption/Ionization Time-of-Flight Mass Spectrometry, SELDI-TOF MS), which combines two well-established methods of solid phase chromatography and TOF-MS into an integrated platform. ProteinChip arrays were coated with anti-H2 RLX Ab, allowing the specific capture of RLX and associated breakdown/modified products.
Design of Drug. Gingival injections were administered (25 μg H2 RLX/100 μl, 41 μM) and tissue was collected at several positions including the site of injection and 0.5, 1 and 2 cm from the site of injection. Tissue was collected 1, 2 and 3 hrs after injection.
a) Protein Extraction and Quantitation. Frozen gingival biopsies were homogenized in extraction buffer (10 μl/mg tissue) containing 10 mM Tris-HCl, 10 mM NaCl, 0.1% TFA and protease inhibitor (complete mini, Roche). The extract was centrifuged (6000×g) for 10 min and the supernatant was collected, aliquoted and stored at −80° C. Total protein concentration was determined using the Bradford assay. Protein concentrations ranged from 1.4 mg/ml to 2.8 mg/ml, all samples were standardized to 1.4 mg/ml in extraction buffer.
b) SELDI-TOF MS analysis—Analysis of RLX treated gingiva on PG20 arrays. Anti-H2 RLX Ab (2 μl/0.25 mg/ml; Genentech) or control IgG (Ciphergen Biosystems) was applied to each spot of a PS20 array which had been pre-coated with Protein G (Ciphergen Biosystems). After antibody binding, the chip was washed once with PBS/0.5% Triton X-100 for 5 min with agitation (5 μl per spot), followed by two PBS washes. Dog gingiva extracts (3 μl/1.4 mg/ml) were applied to each spot and incubated for 4 hrs. Non-specifically bound proteins were removed by sequentially washing with PBS/0.5% Triton X-100, PBS and 1 mM HEPES, pH 7.2. The chips were air dried and 1 μl of 50% saturated sinapinic acid in 50% (v/v) acetonitrile, 0.5% trifluoroacetic acid was applied onto each spot twice, arrays were air dried between each application. Chips were subsequently analysed by SELDI-TOF MS (Ciphergen Biosystems) using the following settings, laser 220 and sensitivity 9.
c) Generation of H2 RLX Std Curve on PG20 arrays. H2 RLX (batch number 11835-89) was spiked into control dog gingiva (1.4 mg/ml) at different concentrations, including 100 nM, 50 nM, 12.5 nM, 6.25 nM, 3.125 nM and 1.56 nM and analysed as described above.

[3] = as above; type: in vivo, dog
wounded sites = conditions: systemic relaxin, rats; cited from earlier work
tooth movement = conditions: RLX via gingival injections, dog models; cited from earlier work
[4] = systemic relaxin vs no systemic relaxin
[5] = systemic relaxin, after six weeks, blinded histopathology

Substance: relaxin
- blood vessels in the wound site ([1]; after about six weeks of treatment): overall reduction
- relaxin treatment group selected in the top three in visual wound assessment ([1]; blinded neutral observers ranking best three of six groups of wound pictures): 89 % of the time
- adverse effects / tolerability over dose range ([1]; dose range 10-960 μg/kg/day): no relevant adverse effects; also recorded: well-tolerated
- wound healing / cosmetic ranking with irrigation relaxin treatment versus topical only ([1]; irrigation week 1 then high dose topical weeks 2-6): particularly efficacious; also recorded: ranked higher overall
- wound healing with topical-only relaxin compared to placebo ([1]; low dose 0.5 mg/mL and high dose 2.5 mg/mL topical formulation, six weeks): improved wound healing
- adverse effects associated with relaxin treatment ([1]; pig, in vivo): no adverse effects
- necrosis or inflammation associated with relaxin treatment ([1]; pig, in vivo): no necrosis or inflammation
- scarring on histopathological slide ([1]; relaxin treatment, six weeks, no relaxin: severe scarring): mild scarring
- wound healing after systemic treatment compared to topical administration ([1]; some indications): better wound healing
- collagen organization (objective collagen scoring, red pixel ratio) [1, 4]: significantly better
- composite wound healing score (three point collagen scale) [1, 4]: significantly improved
- wound appearance versus control pig ([1]; systemic relaxin, after day six): healed faster, better
- chronic inflammation in wound sites [1, 5]: reduces; also recorded: significantly reduced
- granulation tissue in wound sites [1, 5]: reduces; also recorded: significantly reduced
- scar visibility at wound site ([1]; systemic relaxin, six weeks of treatment, vs placebo (red scar visible)): invisible; also recorded: no scar was visible
- RLX detection 0.5 cm from the site of injection ([2]; 1 hr time point): detected
- RLX detection 1 cm from the site of injection ([2]; 1 hr time point): not detected
- RLX detection 2 cm from the site of injection ([2]; 1 hr time point): not detected
- migration of RLX through the gingiva [2]: stayed close to the injection site
- migration of RLX through the gingiva ([2]; listed as RLX): stayed close to the injection site; also recorded: limited migration
- concentration of H2 RLX detected in treated gingiva ([2]; 1 hr after gingival injection of 25 μg H2 RLX/100 μl): 90 nM
- concentration of H2 RLX detected in treated gingiva ([2]; 2 hrs after gingival injection of 25 μg H2 RLX/100 μl): 78 nM
- RLX detection at the remaining time points ([3]; 2 and 4 hrs): only detected at the site of injection
- concentration of H2 RLX detected in treated gingiva ([3]; site of injection, 4 hrs after gingival injection of 25 μg H2 RLX/100 μl): 21 nM
- VEGF and bFGF transcripts (wounded sites): upregulation
- new blood vessel formation selectively at wounded sites (wounded sites): increased
- relapse (tooth movement): prevent relapse
- tooth movement (tooth movement): speed tooth movement
